Results taken from patent US20240009166A1, “USE OF ZANAMIVIR IN PREPARATION OF DRUG FOR TREATING OR PREVENTING PREECLAMPSIA” (Shenzhen Evergreen Therapeutics Co., Ltd., priority 2020, published 2024).
“Also recorded” adds a separate entry of the source.

Columns and labels:
Assay type in all cases: in vivo, CD-1 mice
[1] = test system: L-NAME-induced pre-eclampsia animal model; experiment: 24-hour urinary total protein on days 17-18 of gestation in L-NAME-induced pre-eclampsia model; conditions: for L-NAME-induced 24-hour urinary protein elevation: vs pregnancy model group
Experimental: (§1) Pregnant CD-1 mice (age 8-10 weeks) were randomly divided into control and pre-eclampsia model groups. On days 7-16 of the gestational cycle, the model group mice were induced with preeclampsia by subcutaneous injection of 50 mg/kg of N-nitro-L-arginine methyl ester (L-NAME) daily. For the control group, an equal volume of the solvent was injected subcutaneously. [table] In animal models of L-NAME-induced pre-eclampsia, symptoms of hypertension appear two days after the first administration of L-NAME and persist until at least five days after the first administration of L-NAME, according to the literature. The appearance of proteinuric symptoms was relatively late. Therefore, in this experiment, we focused on monitoring the blood pressure of […] on day 12 of gestation (i.e., five days after the first administration of L-NAME), as well as collecting 24-hour urine on day 17-18 of gestation and measuring the level of total protein. Also, we recorded the number of pups produced by each group of pregnant rats.

[2] = test system: L-NAME-induced pre-eclampsia animal model; experiment: Blood pressure on day 12 of gestation in L-NAME-induced pre-eclampsia model; conditions: days 1-18 of pregnancy, vs pregnancy model group
Experimental: as §1

[3] = test system: L-NAME-induced pre-eclampsia animal model; experiment: Number of pups (litter size) in L-NAME-induced pre-eclampsia model
Experimental: as §1

[4] = 90 mg/kg tail vein injection daily
[5] = 120 mg/kg tail vein injection daily

## CC(=O)N[C@H]1[C@H]([C@H](O)[C@H](O)CO)OC(C(=O)O)=C[C@@H]1N=C(N)N [zanamivir, 5-acetamido-4-[(aminoiminomethyl)-amino]-2,6-hydro-3,4,5-trideoxy-D-propanetriolyl-D-galactos-2-enolonic acid]
[1]; [4]
  L-NAME-induced 24-hour urinary protein elevation: significantly reduced
[1]; [5]
  L-NAME-induced 24-hour urinary protein elevation: significantly reduced
[1]; FIG. 4 legend, dose not stated
  L-NAME-induced elevation of 24-hour urinary protein: significantly reduces
[2]; [4]
  blood pressure: did not significantly change
[2]; [5]
  L-NAME-induced increase in diastolic blood pressure: significantly reduced
  L-NAME-induced increase in mean arterial pressure: significantly reduced
  L-NAME-induced increase in systolic blood pressure: significantly reduced
[3]; 90 mg/kg tail vein injection daily, vs pregnancy model group
  reduction of litter size caused by L-NAME: significantly improved
[3]; 120 mg/kg tail vein injection daily, vs pregnancy model group
  reduction of litter size caused by L-NAME: significantly improved; also recorded: returning to a level comparable to that of the pregnant control group
[3]; FIG. 5 legend, dose not stated
  reduction of litter size caused by L-NAME: significantly improved
